Data on 13 compounds can be found in PubChem BioAssay (NCI).

Among the test systems are BT-549 breast; SK-MEL-28 melanoma; TK-10 renal; CAKI-1 renal; SK-MEL-2 melanoma; SNB-75 CNS; HCT-15 colon; SNB-19 CNS.
Holding throughout (assay): NCI anticancer screen, dose series, 48 h

Values joined by “and” are separate entries in the source; they are usually repeats but may differ in a detail not shown here. Equal entries are not always repeated.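 Briefly, cells in 96-well plates were exposed to five compound concentrations for 48 h, and endpoints were estimated by linear interpolation. GI50 is the concentration that inhibits growth by half. TGI is the concentration that stops growth completely.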 Some results are limits rather than exact numbers.

As for `Cc1ccccc1C1=C(c2cn(C)c3ccccc23)C(=O)NC1=O`, the GI50 in the experiment with BT-549 breast was above 21.8 µM; in the experiment on SK-MEL-28 melanoma, above 25 µM; in the experiment on TK-10 renal it was above 25 µM; in the experiment on CAKI-1 renal, 10.2 µM; with SK-MEL-2 melanoma, 24.9 µM; with SNB-75 CNS, 0.644 µM. Moreover, the GI50 was 10.7 µM in the experiment with HCT-15 colon and above 25 µM in the experiment on SNB-19 CNS. The TGI with BT-549 breast, in the experiment on SK-MEL-28 melanoma, with TK-10 renal, in the experiment with CAKI-1 renal, with SK-MEL-2 melanoma and in the experiment with SNB-75 CNS was above 25 µM each time. Further, the TGI in the experiment on HCT-15 colon and in the experiment with SNB-19 CNS was above 25 µM each time.

`O=C(/C=C/C12c3ccccc3C(c3ccccc31)C1C(=O)N(c3ccc(Cl)cc3)C(=O)C12)c1ccccn1` (stereo unspecified): the GI50 in the experiment with BT-549 breast is 0.171 µM; in the experiment with SK-MEL-28 melanoma it was 0.342 µM; with TK-10 renal, 1.46 µM; in the experiment with CAKI-1 renal it was 1.07 µM; in the experiment with SK-MEL-2 melanoma, 0.529 µM; with SNB-75 CNS, 0.256 µM. The GI50 was 0.206 µM in the experiment on HCT-15 colon and 0.426 µM in the experiment on SNB-19 CNS. The TGI with BT-549 breast amounted to 0.365 µM; in the experiment on SK-MEL-28 melanoma, 1.61 µM; in the experiment on TK-10 renal it was 4.87 µM; in the experiment on CAKI-1 renal, 4.95 µM; in the experiment with SK-MEL-2 melanoma, 2.74 µM; with SNB-75 CNS, 1.05 µM. Further, the TGI with HCT-15 colon was determined as 0.66 µM; in the experiment on SNB-19 CNS it was 2 µM.

As to `CNC(=O)c1nn(C)c2c1C(C)(C)Cc1cnc(Nc3cccc(N4CCN(C)CC4)c3)nc1-2`, the GI50 was 2.37 µM with BT-549 breast; 1.32 µM in the experiment on SK-MEL-28 melanoma; 0.271 µM with TK-10 renal; 0.0636 µM in the experiment on CAKI-1 renal; 0.244 µM in the experiment on SK-MEL-2 melanoma; 0.159 µM in the experiment on SNB-75 CNS. The GI50 in the experiment on HCT-15 colon was 0.186 µM; with SNB-19 CNS, 0.322 µM. Further, the TGI in the experiment with BT-549 breast turned out to be 13.7 µM; in the experiment on SK-MEL-28 melanoma, 13.1 µM; in the experiment on TK-10 renal, 24.4 µM; in the experiment on CAKI-1 renal it was 1.9 µM; in the experiment on SK-MEL-2 melanoma it was 4.22 µM; with SNB-75 CNS, 1.42 µM. The figures for the TGI in the experiment on HCT-15 colon and in the experiment with SNB-19 CNS were above 40.7 µM and 28.7 µM, respectively.

As for `COc1ccc(-c2cc(/C=C3\C(=O)Nc4cc(Cl)ccc43)[nH]n2)cc1`, the GI50 with BT-549 breast is 7.02 µM; in the experiment with SK-MEL-28 melanoma, 7.45 µM; in the experiment with TK-10 renal, 7.74 µM; in the experiment with CAKI-1 renal, 1.63 µM; with SK-MEL-2 melanoma, 4.35 µM; with SNB-75 CNS, 1.78 µM. The values for the GI50 with HCT-15 colon and in the experiment on SNB-19 CNS were 2.53 µM and 4.65 µM, respectively. For the same compound, the TGI with BT-549 breast was 62 µM; in the experiment with SK-MEL-28 melanoma, above 100 µM; in the experiment on TK-10 renal it was above 100 µM; in the experiment on CAKI-1 renal, 21.6 µM; in the experiment on SK-MEL-2 melanoma, above 100 µM; with SNB-75 CNS it was 6.96 µM. Besides, the TGI in the experiment with HCT-15 colon and with SNB-19 CNS was above 100 µM in each case.

`COc1cc(OC)cc(Oc2cnc3cc(N)cc(N)c3n2)c1`: the GI50 with BT-549 breast was 17.2 µM; in the experiment with SK-MEL-28 melanoma, 14.2 µM; in the experiment with TK-10 renal it was 16.6 µM; in the experiment on CAKI-1 renal, 13 µM; in the experiment with SK-MEL-2 melanoma it was 19.7 µM; with SNB-75 CNS, 3.92 µM. For the same compound, the GI50 was 18.3 µM in the experiment on HCT-15 colon and 17.5 µM in the experiment with SNB-19 CNS. The TGI amounted to 39.2 µM with BT-549 breast; 28.4 µM with SK-MEL-28 melanoma; 38.5 µM in the experiment on TK-10 renal; 27.7 µM in the experiment with CAKI-1 renal; 43.3 µM in the experiment with SK-MEL-2 melanoma; 18.6 µM with SNB-75 CNS. The TGI in the experiment with HCT-15 colon came to 45.1 µM; in the experiment with SNB-19 CNS, 45.6 µM.

Turning to `COC1=CC(c2ccc[nH]2)=N/C1=C\c1[nH]c(C)c(C(=O)CCC(=O)Oc2ccc3c(c2)CCC2C3CC[C@]3(C)[C@@H](O)CC[C@@H]23)c1C` (stereo partly specified), the GI50 with BT-549 breast was 3.51 µM; with SK-MEL-28 melanoma, 5.64 µM; in the experiment on TK-10 renal, 7.68 µM; in the experiment with CAKI-1 renal, 2.38 µM; in the experiment with SK-MEL-2 melanoma, 3.52 µM; with SNB-75 CNS, 4.56 µM. For the same compound, the GI50 with HCT-15 colon is 1.29 µM; in the experiment on SNB-19 CNS it was 4.13 µM. In addition, the TGI was 61.5 µM in the experiment with BT-549 breast; above 100 µM with SK-MEL-28 melanoma; above 100 µM in the experiment on TK-10 renal; above 100 µM in the experiment with CAKI-1 renal; 17.8 µM in the experiment on SK-MEL-2 melanoma; 58.4 µM in the experiment with SNB-75 CNS. Further, the TGI worked out at 4.18 µM with HCT-15 colon and 72.6 µM with SNB-19 CNS.

Consider `CN1CCN(C(=O)[C@@]2(C)CC[C@]3(C)CC[C@]4(C)C(=CC[C@@H]5[C@@]6(C)CCC(=O)NC(C)(C)[C@@H]6CC[C@]54C)[C@@H]3C2)CC1`, for which the GI50 was 1.58 µM with BT-549 breast; 1.56 µM in the experiment with SK-MEL-28 melanoma; 1.8 µM with TK-10 renal; 2.36 µM in the experiment on CAKI-1 renal; 1.94 µM in the experiment with SK-MEL-2 melanoma; 1.57 µM in the experiment on SNB-75 CNS. Further, the GI50 in the experiment with HCT-15 colon is 1.2 µM; in the experiment with SNB-19 CNS, 1.81 µM. For the same compound, the TGI worked out at 3.28 µM in the experiment on BT-549 breast; 2.97 µM in the experiment on SK-MEL-28 melanoma; 3.42 µM in the experiment on TK-10 renal; 6.48 µM in the experiment with CAKI-1 renal; 3.84 µM in the experiment on SK-MEL-2 melanoma; 3.34 µM in the experiment with SNB-75 CNS. Besides, the results for the TGI with HCT-15 colon and with SNB-19 CNS were 2.96 µM and 3.56 µM, respectively.

As for `COc1cc2c3c(n(CCCN4CCNCC4)c(=O)c2cc1OC)-c1cc2c(cc1C3=O)OCO2`, the GI50 in the experiment with BT-549 breast is 1.4 µM; in the experiment with SK-MEL-28 melanoma, 4.11 µM; in the experiment on TK-10 renal, 0.762 µM; in the experiment with CAKI-1 renal it was 0.128 µM; in the experiment on SK-MEL-2 melanoma it was 2.91 µM; in the experiment on SNB-75 CNS, 1.44 µM. The GI50 with HCT-15 colon was 0.296 µM; with SNB-19 CNS it was 0.835 µM. The TGI in the experiment with BT-549 breast is 7.97 µM; with SK-MEL-28 melanoma, 19.6 µM; with TK-10 renal, 2.66 µM; with CAKI-1 renal, 2.02 µM; in the experiment on SK-MEL-2 melanoma, 28.3 µM; with SNB-75 CNS it was 11.1 µM. Further, the TGI in the experiment on HCT-15 colon is 5.14 µM; with SNB-19 CNS, 12.4 µM.

Consider `C/C(CCC(=O)O)=N/Nc1ccc([N+](=O)[O-])cc1`, for which the GI50 is 42.3 µM in the experiment on BT-549 breast; above 100 µM in the experiment with SK-MEL-28 melanoma; above 100 µM in the experiment on TK-10 renal; 3.69 µM in the experiment with CAKI-1 renal; 66.3 µM with SK-MEL-2 melanoma; above 100 µM with SNB-75 CNS. The GI50 in the experiment with HCT-15 colon is 3.35 µM; in the experiment on SNB-19 CNS, above 100 µM. For the same compound, the TGI in the experiment with BT-549 breast, in the experiment on SK-MEL-28 melanoma, with TK-10 renal, in the experiment on CAKI-1 renal, in the experiment on SK-MEL-2 melanoma and in the experiment with SNB-75 CNS was above 100 µM in each case. Besides, the TGI in the experiment with HCT-15 colon and with SNB-19 CNS was above 100 µM throughout.

Consider `CCCCCCC1N=C(N)N=C(N)N1c1cccc(Cl)c1` (stereo unspecified), for which the GI50 in the experiment with BT-549 breast was 0.506 µM; in the experiment with SK-MEL-28 melanoma it was 2.34 µM; in the experiment on TK-10 renal it was 3.66 µM; in the experiment with CAKI-1 renal, 21.8 µM; in the experiment with SK-MEL-2 melanoma, 11.3 µM; with SNB-75 CNS, 0.347 µM. In addition, the GI50 in the experiment on HCT-15 colon was 21.6 µM; with SNB-19 CNS, 0.255 µM. The TGI with BT-549 breast was 14.5 µM; in the experiment with SK-MEL-28 melanoma, 17.4 µM; with TK-10 renal, 25.9 µM; in the experiment on CAKI-1 renal, above 78.5 µM; in the experiment with SK-MEL-2 melanoma it was 27.7 µM; in the experiment on SNB-75 CNS, 6.75 µM. Moreover, the results for the TGI with HCT-15 colon and in the experiment on SNB-19 CNS were above 100 µM and 8.58 µM, respectively.

For the compound `O=C(Cn1c(C(=O)c2ccc(Cl)cc2)nc(-c2ccc(Cl)cc2)c1-c1ccc(Cl)cc1)c1ccccc1`, the GI50 in the experiment on BT-549 breast, in the experiment with SK-MEL-28 melanoma, in the experiment with TK-10 renal, in the experiment with CAKI-1 renal, with SK-MEL-2 melanoma and with SNB-75 CNS was above 100 µM each time. The GI50 in the experiment with HCT-15 colon and with SNB-19 CNS was above 100 µM in each case. Also, the TGI with BT-549 breast, in the experiment with SK-MEL-28 melanoma, in the experiment with TK-10 renal, in the experiment on CAKI-1 renal, with SK-MEL-2 melanoma and in the experiment on SNB-75 CNS was above 100 µM throughout. Moreover, the TGI with HCT-15 colon and in the experiment on SNB-19 CNS was above 100 µM throughout.

In the case of `N#Cc1c(NCc2ccccc2)nc(NCc2ccccc2)c(C#N)c1-c1ccc(Cl)cc1`, the GI50 is 63.6 µM in the experiment on BT-549 breast; > 50 µM and 59 µM with SK-MEL-28 melanoma; > 50 µM and 62.7 µM with TK-10 renal; above 100 µM in the experiment on CAKI-1 renal; > 50 µM and 34.7 µM with SNB-75 CNS; above 100 µM in the experiment on HCT-15 colon. In addition, in the experiment on SNB-19 CNS, the GI50 is > 50 µM and 40.9 µM. For the same compound, the TGI was above 100 µM with BT-549 breast; above 100 µM in the experiment with SK-MEL-28 melanoma; above 100 µM with TK-10 renal; above 100 µM with CAKI-1 renal; > 50 µM and 30.4 µM in the experiment with SK-MEL-2 melanoma; above 100 µM in the experiment with SNB-75 CNS. Moreover, the TGI in the experiment with HCT-15 colon and with SNB-19 CNS was above 100 µM in each case.

For the compound `CCN1CCC(CC(=O)Nc2n[nH]c3nnc(-c4cccc(F)c4F)cc23)CC1`, the GI50 in the experiment with BT-549 breast is above 25 µM; in the experiment with SK-MEL-28 melanoma, above 25 µM; with TK-10 renal it was above 25 µM; in the experiment on CAKI-1 renal it was above 25 µM; with SK-MEL-2 melanoma, 16.9 µM; with HCT-15 colon, above 25 µM. Besides, the GI50 with SNB-19 CNS was above 25 µM. The TGI in the experiment on BT-549 breast, in the experiment with SK-MEL-28 melanoma, with TK-10 renal, in the experiment with CAKI-1 renal, in the experiment with SK-MEL-2 melanoma and with SNB-75 CNS was above 25 µM throughout. Further, the TGI in the experiment with HCT-15 colon and in the experiment on SNB-19 CNS was above 25 µM in each case.
